Experiment [1] deals with Mycobacterium tuberculosis. Nature of the experiment: Inhibition of Mycobacterium tuberculosis monoacylglycerol lipase Rv0183 preincubated with enzyme measured after 30 mins by pH-stat technique.
Experiment [2] concerns the target T1, Cutinase 1 (Fusarium vanettenii) (UniProt P00590).
T1 sequence (whole entry): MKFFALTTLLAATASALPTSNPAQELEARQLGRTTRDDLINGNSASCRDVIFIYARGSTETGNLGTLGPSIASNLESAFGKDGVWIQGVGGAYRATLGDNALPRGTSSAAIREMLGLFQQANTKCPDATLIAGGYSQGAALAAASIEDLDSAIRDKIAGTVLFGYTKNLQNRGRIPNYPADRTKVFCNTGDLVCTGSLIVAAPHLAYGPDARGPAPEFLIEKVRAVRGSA
Nature of the experiment: Inhibition of Fusarium solani pisi cutinase at 20 molar excess compound concentration preincubated with enzyme measured after 30 mins by pH-stat technique relative to control.

The subject of experiment [3] is Mycobacterium tuberculosis. Nature of the experiment: Inhibition of Mycobacterium tuberculosis monoacylglycerol lipase Rv0183 at 20 molar excess compound concentration preincubated with enzyme measured after 30 mins by pH-stat technique relative to control.
Experiment [4] relates to Mycobacterium tuberculosis. Nature of the experiment: Inhibition of Mycobacterium tuberculosis triacylglycerol lipase LipY at 20 molar excess compound concentration preincubated with enzyme measured after 30 mins by pH-stat technique relative to control.
For experiment [5], the target named is T1, Cutinase 1 (Fusarium vanettenii). Nature of the experiment: Inhibition of Fusarium solani pisi cutinase preincubated with enzyme measured after 30 mins by pH-stat technique.
For experiment [6], the system named is Mycobacterium tuberculosis. Nature of the experiment: Inhibition of Mycobacterium tuberculosis triacylglycerol lipase LipY preincubated with enzyme measured after 30 mins by pH-stat technique.

The structures appear in SMILES notation.

The inhibition is the percentage by which the read-out fell short of the control. Read a high inhibition as strong suppression.

As to `CCCCCCCCCC[C@H]1CC[P@](=O)(OC)OC(C)=C1C(=O)OC`, the XI50 in experiment [1] is 1.16 molar excess; in experiment [5], 2.52 molar excess; in experiment [6], 20 molar excess. The results for the inhibition in experiment [2], in experiment [3] and in experiment [4] were 93.2%, 96.6% and 42.1%, respectively.
Take `CCCCCCCCCC[C@H]1CC[P@@](=O)(OC)OC(C)=C1C(=O)OC`: the XI50 in experiment [1] turned out to be 11.3 molar excess; in experiment [5] it was 97.3 molar excess; in experiment [6], 25.9 molar excess. Besides, the inhibition was 22.5% in experiment [2], 78.7% in experiment [3] and 39.8% in experiment [4].
As for `CCCCCCCCCC[C@@H]1CC[P@@](=O)(OC)OC(C)=C1C(=O)OC`, the XI50 is 7.61 molar excess in experiment [1], 3.38 molar excess in experiment [5] and 1.64 molar excess in experiment [6]. Moreover, the results for the inhibition in experiment [2], in experiment [3] and in experiment [4] were 91.8%, 87.7% and 82.8%, respectively.
As to `CCCCCCCCCC[C@@H]1CC[P@](=O)(OC)OC(C)=C1C(=O)OC`, the results for the XI50 in experiment [1], in experiment [5] and in experiment [6] were 1.24 molar excess, 4.07 molar excess and 15.4 molar excess, respectively. In addition, the figures for the inhibition in experiment [2], in experiment [3] and in experiment [4] were 86.5%, 93.1% and 49.6%, respectively.

These data come from ChEMBL document CHEMBL2380200, “Enantioselective inhibition of microbial lipolytic enzymes by nonracemic monocyclic enolphosphonate analogues of cyclophostin” (J Med Chem, 2013).
